Source: US7879792B2, “Synthetic peptide inhibitors of thrombin and thrombin activation of protease activated receptors 1 and 4” (The Regents of the University of Michigan, priority 2005, dated 2011)
Where a SMILES comes first, the peptide text is derived from it.

How the values were obtained:
[1] = stability testing in intestinal homogenate; type: in vitro ADME; settings: rat
Procedure: (§1) Stability testing of the various compounds was performed in buffer, intestinal perfusate, and an intestinal homogenate preparation to assess the potential oral availability of these compounds. Initial studies prepared the tissue for stability studies. The buffer used in stability testing is 10 mM MES (pH 6.5) containing 135 mM NaCl, and 5 mM KCl. To collect intestinal perfusate from rats, male Sprague Dawley rats, 8 to 10 weeks old, weighing 250 to 350 g were fasted 15 to 18 hours with water given ad libitum. Anesthesia was administered by intramuscular injection of pentobarbital/ketamine (40 mg/kg and 80 mg/kg, respectively). The rats were placed on a warming pad under a surgical lamp to maintain body temperature and jejunal intestinal segments were exposed through a midline, abdominal incision. Approximately 20 cm segment of the jejunum (2 to 4 cm distal to the ligament of Treitz) was cannulated and the intestinal segments were perfused with 10 mM MES (pH 6.5) containing 135 mM NaCl, and 5 mM KCl at a flow-rate of 0.5 ml/min at 37° C. using a constant infusion pump (Harvard Apparatus, South Natick, Mass.). The collected perfusate was stored at −80° C. until use for ex vivo stability studies. After collection, the perfused intestinal segments were flushed with ice-cold 0.15 M KCl solution and the animal was euthanized and the jejunal intestinal segment detached. The inner intestinal tissue layers are scraped out and homogenized in MES buffer (pH 6.5) in a ratio of 1 part of intestinal tissue to 5 parts buffer. Total protein content of the perfusate and the homogenate were determined using a Biorad protein assay kit. The intestinal homogenate samples were used immediately or rapidly frozen at −80° C. until stability analysis.
(§2) The actual stability testing protocol is as follows: A 0.1 ml aliquot of the synthetic peptide solution (1 mg/ml) was added to 0.9 ml of MES buffer, pH 6.5, intestinal perfusate, or intestinal homogenate at 37° C. Samples were mixed by vortexing and 100 microliter aliquots were removed over a 60 to 90 minute period for analysis of breakdown products. The 100 microliter sample aliquots were diluted 10 fold with water and subjected to solid phase extraction using a Waters Oasis HLB column. Briefly, the columns were preconditioned by passing 1 ml of MeOH and 1 ml of water over the column, and 1 ml of sample was added to the column. The column was washed with 5% methanol:95% water solution to remove proteins and salts, then eluted with 1 ml of 100% methanol. The methanol was removed by vacuum, and the sample was reconstituted in mobile phase for LC/MS/MS analysis.
(§3) LC/MS/MS analysis was performed on a HP1100 HPLC (Hewlett Packard) interfaced with a Quattro II MS/MS detector (Waters/Micromass). For the HPLC separation, a 10 μL aliquot of sample in a mobile phase consisting of an equal volume mixture of acetonitrile/water containing 0.5% formic acid was injected onto a 150 mm×2.2 mm, 5 μm C8 column (Higgins Analytical Inc) and developed at a flow rate of 0.2 ml/min for 5 minutes. The MS detector was used in single ion recording mode at a cone voltage of 50 Volts.

[2] = stability testing in intestinal perfusate; type: in vitro ADME; settings: male, Sprague Dawley, rat, intestinal (jejunal) perfusate, pH 6.5, rat
Procedure: as §1, §2, §3

[3] = tested on: normal human lung fibroblasts (NHLF); experiment: α-thrombin-induced calcium mobilization in normal human lung fibroblasts; type: cell-based; settings: 2 nM alpha thrombin
Procedure: The second assay developed to assess peptides from the combinatorial libraries uses inhibition of α-thrombin-induced calcium mobilization in fibroblasts. Normal human lung fibroblasts (NHLF) were purchased from Clonetics, San Diego, Calif., an affiliate of Bio-Wittaker, Walkersville, Md. The cytoplasmic free Ca^2+ concentration ([Ca^2+]i) was measured using the fluorescent Ca^2+ indicator fura-2 (Molecular Probes, Inc., Eugene, Oreg.). Suspension of fibroblasts in Hepes-Tyrode's buffer were loaded with fura-2 by incubation at 37° C. with 2 μM fura-2/acetoxymethyl ester for 45 minutes according to the method of Rasmussen et al., J. Biol. Chem. 268, 14322 (1993). The labeled fibroblasts were separated from excess probe by washing by centrifugation at 1000 rpm (180 xg). Aliquots of the labeled fibroblasts were transferred into a quartz cuvette with a magnetic stirrer, which was then placed in a thermostatically controlled chamber at 37° C. in a fluorescence spectrophotometer (Perkin-Elmer LS50B spectrofluorometer, Chicago, Ill.). Reagents, test peptide, and α-thrombin (0.25-2 nM), were sequentially added directly to the cuvette. The excitation wavelengths varied between 340 and 380 nm. Fluorescence was measured by recording emitted light at 510 nm as reported by Fisher et al., Mol Pharm. 35, 195 (1989). The minimum emission was determined on a solubilized fibroblast sample in the presence of 10 mM EDTA; maximum emission was determined on the same sample with 10 mM Ca^2+ added. The intrafibroblast free Ca^2+ concentration was calculated by the method of Grykiewicz et al., J. Biol. Chem. 260, 3440 (1985). The ratio of the fluorescence readings was calculated as R=340/380 nm and processed according to the equation [Ca^2+]i=KD((R−Rmin)/Rmax−R))(Sf2/Sb2) to determine the intrafibroblast free Ca^2+ concentration. The KD for fura-2 was assumed to be 224 nM. Rmax and Rmin are the maximum and minimum fluorescence ratios measured at the end of the experiment, respectively; Sf2 and Sb2 are the fluorescence values at 380 nm in the absence and presence of saturating [Ca^2+], respectively. The reaction was monitored for 3-5 minutes.

SMILES: N=C(N)NCCC[C@@H](N)C(=O)N1[C@H](C(=O)N2CCC[C@H]2C(=O)NCC(=O)N[C@@H](Cc2ccccc2)C(N)=O)C[C@@H]2CCCC[C@@H]21 [rOicPGF, D-Arg-Oic-Pro-Gly-Phe, reference compound] (HELM PEPTIDE1{[dR].[O=C([C@@H]1C[C@@H]2CCCC[C@@H]2N1[*:1])[*:2]].P.G.F.[am]}$$$$V2.0)
- half-life at 0.1 mg/ml ([1]; male, Sprague Dawley, intestinal homogenate, pH 6.5, 37° C., read-out: t1/2 (min) Intestinal Homogenate): 40.3 min
- stability in intestinal homogenate (FIG. 12) [1]: less stable
- half-life at 0.1 mg/ml ([2]; 37° C., read-out: t1/2 (min) Intestinal Perfusate): 111 min
- half-life at 0.1 mg/ml ([2]; read-out: t1/2 in intestinal perfusate (converted)): 120 min

SMILES: Cc1ccc(C[C@H](NC(=O)[C@@H](C)NC(=O)[C@@H]2CCCN2C(=O)[C@@H]2C[C@@H]3CCCC[C@@H]3N2C(=O)[C@H](N)CCCNC(=N)N)C(N)=O)cc1 [rOicPaF(p-Me), D-Arg-Oic-Pro-D-Ala-Phe(p-Me)] (HELM PEPTIDE1{[dR].[O=C([C@@H]1C[C@@H]2CCCC[C@@H]2N1[*:1])[*:2]].P.[dA].[Cc1ccc(C[C@H](N[*:1])C(=O)[*:2])cc1].[am]}$$$$V2.0)
- alpha thrombin-induced calcium mobilization ([3]; 0.00038 mM peptide): full recovery
- inhibition of thrombin-induced calcium mobilization ([3]; 0.003 mM peptide): 69%
- inhibition of thrombin-induced calcium mobilization ([3]; 0.08 mM peptide): 97%
